A short description of experiment [1]: Inhibition of human erythrocyte 20s proteasome trypsin-like activity using Boc-LRR-MCA as substrate pretreated for 10 mins followed by substrate addition measured after 3 hrs by spectrophotometric method.
A short description of experiment [2]: Inhibition of human erythrocyte 20s proteasome caspase-like activity using Z-LLE-MCA as substrate pretreated for 10 mins followed by substrate addition measured after 3 hrs by spectrophotometric method.

Where only a bound is given, the exact number is not on record here.

For the molecule `C=C1CC[C@H]2C(C)(C)[C@H](O)CC[C@]2(C)[C@H]1CC1=C(O)C(=O)C2=C(C1=O)[C@@]13C=C[C@@H](O)[C@H](O)[C@]1(C2)C(=O)c1c(O)cc(C)cc1C3=O`, the IC50 was more than 50 µM in experiment [1] and 17.3 µM in experiment [2].

One may read the IC50 as the concentration that inhibits the measured activity by half.

Source of the values: BindingDB's records for doi:10.1021/acs.jnatprod.6b01177 (Hirosaki University, 2017).
